# According to publication PMC9011347, “Small-Molecule Inhibitors Targeting Lipolysis in Human Adipocytes” (Journal of the American Chemical Society, 2022):
# Target: T1, PNPLA1 (Homo sapiens, UniProt Q8N8W4)
# T1 construct: expressed in transfected cells; host or cells: HEK293T cells
# Test: PNPLA1-dependent ω-O-acylceramide formation in HEK293T cells
# Format: cell-based
# Settings: NG-497 40 µM, Orlistat 40 µM
# Procedure: Fig. S3: Investigation of off-target effects of NG-497 on structurally and functionally related lipid hydrolases. (a) PNPLA1-dependent formation of acylceramides was monitored in a cell-based assay in HEK293T cells. Experiments were performed in the presence or absence of NG-497 (40 µM) and the non-selective lipase inhibitor Orlistat (40 µM). Orlistat, but not NG-497, inhibited PNPLA1/CGI-58-dependent ω-O-acylceramide formation. (b-h) Enzymes were overexpressed in Expi293 cells and cell lysates were used as source of enzymatic activity. […] Experiments were performed in the presence or absence of NG-497 (100 µM) and the formation of reaction products was monitored. […]
# Data were calculated relative to the basal activity detected in LacZ-transfected controls. […]
# LPL activity was inhibited using an anti-LPL antibody. All data are presented as mean ± S.D. Statistical significance was determined via ANOVA followed by Bonferroni post hoc test ( ***, p < 0.001). […]
# Released free fatty acids were quantified via NEFA C kit (Fujifilm Wako Chemicals, Neuss, Germany) and release of p-nitrophenol was measured at 405 nm. […] Cellular ω-O-acylceramide formation was monitored using [1-14C]linoleic acid as tracer. […] The activity of purified human pancreatic lipase (MilliporeSigma #SRE0028) was determined as previously described7 in the presence or absence of NG-497 (100µM) or Orlistat (20 µM). […]
# T1 sequence (Q8N8W4 whole entry): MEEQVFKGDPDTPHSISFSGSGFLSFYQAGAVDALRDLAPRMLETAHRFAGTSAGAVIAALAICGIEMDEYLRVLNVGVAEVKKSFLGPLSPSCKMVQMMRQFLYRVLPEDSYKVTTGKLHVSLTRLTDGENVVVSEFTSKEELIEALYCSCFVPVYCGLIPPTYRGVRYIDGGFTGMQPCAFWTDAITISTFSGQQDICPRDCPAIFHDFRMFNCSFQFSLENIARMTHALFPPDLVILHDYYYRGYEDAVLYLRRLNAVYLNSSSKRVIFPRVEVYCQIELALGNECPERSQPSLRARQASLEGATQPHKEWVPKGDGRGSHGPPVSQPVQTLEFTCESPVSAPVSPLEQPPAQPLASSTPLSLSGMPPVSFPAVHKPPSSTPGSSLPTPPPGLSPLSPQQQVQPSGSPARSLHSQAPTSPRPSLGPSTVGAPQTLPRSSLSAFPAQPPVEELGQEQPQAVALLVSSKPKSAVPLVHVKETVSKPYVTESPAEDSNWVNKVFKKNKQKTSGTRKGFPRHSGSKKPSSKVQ
structure (smiles),measurement,value
CCOc1ccc(-c2cc(OC)cc(C(=O)OC(C)C)n2)cc1 [NG-497],PNPLA1/CGI-58-dependent ω-O-acylceramide formation,not affected
